Experimental data taken from article PMC4729491, “The Cellular Thioredoxin-1/Thioredoxin Reductase-1 Driven Oxidoreduction Represents a Chemotherapeutic Target for HIV-1 Entry Inhibition” (PLoS ONE, 2016).
Values joined by “and” are separate entries in the source; they are usually repeats but may differ in a detail not shown here. Equal entries are not always repeated. “Also recorded” adds a separate entry of the source.

Columns and labels:
HIV-1(IIIB) [1] = experiment: Antiviral activity in PHA-stimulated PBMCs (p24 ELISA), HIV-1(IIIB); format: cell-based; conditions: PHA-stimulated PBMCs; mean ± SD; read-out: EC50 HIV-1 (IIIB)
Procedure: (§1) To test the antiviral activity in fresh, PHA-stimulated PBMCs, an experiment was performed as previously described. Briefly, the cells were preincubated with HIV-1(IIIB), HIV-1(BaL) or HIV-1(HE) for 1 h at 37°C, using a viral load of 1000 x CCID50 per ml. Then, cell suspensions containing virus and 2 x 10^5 PBMCs were seeded in a 96-well microtiter plate and a serial dilution of compound was added, in a total volume of 200 μl. After 4 days, the cells were passaged and fresh culture medium, containing IL-2 and compound, was added. Three days later, cellular supernatants were harvested and viral replication in the presence of the compounds was quantified using a p24 enzyme-linked immunosorbent assay (ELISA) (Perkin Elmer, Brussels, Belgium). The half maximal effective concentration (EC50) was defined as the compound concentration that is required to block viral replication by 50%.

[2] = test system: HuT-78/HIV-1 and Sup-T1 cells; experiment: cells; format: cell-based; conditions: cocultures of HuT-78/HIV-1 and Sup-T1 cells, ~24 hours; read-out: IC50 inhibition of syncytia formation
Procedure: Persistently infected HuT-78/HIV-1 cells were thoroughly washed to eliminate free virions. Next, 1 x 10^5 HuT-78/HIV-1 cells were co-cultivated with 1 x 10^5 Sup-T1 cells in 96-well plates (200 μl/well) during 20 h at 37°C, in the presence or absence of a serial dilution of compound. Afterwards, the formation of syncytia was evaluated microscopically. The EC50 was defined as the compound concentration required to suppress syncytia formation by 50%.

PHA-stimulated PBMCs = experiment: Toxicity in PHA-stimulated PBMCs (trypan blue cell counting); format: cell-based, human; conditions: proliferation of seven-day drug-exposed PHA-stimulated PBMCs; mean ± SD; read-out: IC50 PBMC
Procedure: A similar experiment was performed to study the toxicity of the compounds in fresh, PHA-stimulated, PBMCs. Mock-infected PBMCs (2 x 10^5 cells) were exposed to a serial dilution of compound, in a total volume of 200 μl. Cells were passaged after 4 days. Cell survival and proliferation was assessed at day 7 using trypan blue-based cell counting with the Countess Automated Cell Counter (Invitrogen, Ghent, Belgium). The IC50 was defined as the concentration of the compound that inhibited cell proliferation by 50%.

HIV-1(IIIB) [3] = format: cell-based; conditions: MT-4 cells, p24 ELISA at 31 h; TE-2 at 50 μM
Procedure: Two time-of-drug-addition (TOA) experiments were performed and adopted from previously reported methods. Briefly, MT-4 cells were infected with HIV-1(IIIB) at a multiplicity of infection of 0.5. Following a 1 hour adsorption period, cells were washed, distributed in a 96-well tray at 100,000 cells per 200 μl per well and incubated at 37°C.
For the first experiment, test compounds were added to the infected cell cultures at different time points (i.e. 0, 1, 2, 3, 4, 5, 6, 7, 8, 9, 24, and 25 h) after the start of infection.
In a second experiment, the resolution of the assay was increased by evaluating early time points in more detail. Therefore, the test compounds were added to the infected cell cultures at the following time points after the start of infection: 0, 15, 30, 45, 100 and 180 min; and 24 as well as 25 h.
Product added at time points 0, 15, 30 and 45 min was present at the start of the viral infection and washed away after 1 hour. After washing, fresh product was added to maintain viral suppression throughout the remaining of the experiment.
HIV-1 production was determined at 31 h post infection via a p24 ELISA (Perkin Elmer, Brussels, Belgium).

HIV-1 = experiment: Infectivity (TZM-bl) of virus particles produced by ACH-2 cells in presence of compound; format: cell-based; conditions: ACH-2 cultures exposed to compound 3 days; supernatant 1:100 titrated on TZM-bl
Procedure: To measure the infectivity of particles produced in the presence of the compounds, washed persistently HIV-1-infected ACH-2 cells (1 x 10^6 cells/ml) were cultured with 100 nM PMA in the presence of the indicated concentration of compounds. After 3 days, the p24 content of the clarified supernatant (see virus expression) was measured. The cell supernatant was then used for an infectivity test (see infectivity assay) without the further addition of any compound to the cultures. The final dilution of the ACH-2 supernatant in the infectivity test was 1:100. A control experiment was performed, in which virus particles produced without the addition of compound, were used for the infectivity test. Additionally, the same amount of compound that could have been carried over with the virus containing supernatant in the original experiment was added to the infectivity test (final concentration: 1/100 of the indicated amount in the viral growth culture).

HIV-2(ROD) = experiment: Inhibition of HIV-2(ROD)-induced giant cell formation in CEM cell cultures; format: cell-based; conditions: CEM cells
Procedure: (§2) To study the antiviral activity in transformed cells, CEM cells were suspended in fresh culture medium and infected with HIV-1(IIIB) or HIV-2(ROD) at 100 x CCID50 (cell culture infective dose 50%) per ml of cell suspension. Infected cell suspension (100 μl; 3 x 10^5 cells/ml) was transferred to a 96-well microplate, mixed with 100 μl of the appropriate dilutions of compounds, and further incubated at 37°C. After 4 days, giant cell formation was recorded microscopically and the number of giant cells was estimated microscopically as percentage of the number of giant cells present in the non-treated virus-infected cell cultures.

HIV-1(HE) = experiment: Antiviral activity in PHA-stimulated PBMCs (p24 ELISA), HIV-1(HE); format: cell-based; conditions: PHA-stimulated PBMCs; mean ± SD; read-out: EC50 HIV-1 (HE)
Procedure: as §1

PDI = PDI (Homo sapiens, UniProt P07237); experiment: SPR binding to immobilized PDI; conditions: 10, 50 and 250 μM
Procedure: SPR analysis was performed to evaluate binding of TE-2 to immobilized recombinant TrxR1, PDI, gp120, gp41 and sCD4. Therefore, these ligands were immobilized on a CM5 sensor chip (GE Healthcare, Uppsala, Sweden) using standard amine coupling in the presence of 10 mM sodium acetate, pH 5. A high ligand-density chip was created, with ligand densities of 6759, 5004, 4119, 2900 and 5569 RU, respectively. A reference flow cell was used to control for non-specific binding and refractive index changes. All interactions were studied at 25°C on a Biacore T200 instrument (GE Healthcare, Uppsala, Sweden) in HBS-P (10 mM HEPES, 150 mM NaCl and 0.05% surfactant P20; pH 7.4) supplemented with 10 mM CaCl2 and 5% DMSO. TE-2 was tested at the concentrations 10, 50 and 250 μM. Samples were injected during 2 minutes at a flow rate of 30 μl/min, followed by a dissociation phase of 2 minutes. Each injection was followed by a regeneration step with 50 mM NaOH (injected during 10 seconds at a flow rate of 100 μl/min).

HIV-1(IIIB) [4] = experiment: microbe, parasite or virus in culture; format: cell-based; conditions: CEM cells
Procedure: as §2

Chain of PDI (P07237 18-508, species assumed): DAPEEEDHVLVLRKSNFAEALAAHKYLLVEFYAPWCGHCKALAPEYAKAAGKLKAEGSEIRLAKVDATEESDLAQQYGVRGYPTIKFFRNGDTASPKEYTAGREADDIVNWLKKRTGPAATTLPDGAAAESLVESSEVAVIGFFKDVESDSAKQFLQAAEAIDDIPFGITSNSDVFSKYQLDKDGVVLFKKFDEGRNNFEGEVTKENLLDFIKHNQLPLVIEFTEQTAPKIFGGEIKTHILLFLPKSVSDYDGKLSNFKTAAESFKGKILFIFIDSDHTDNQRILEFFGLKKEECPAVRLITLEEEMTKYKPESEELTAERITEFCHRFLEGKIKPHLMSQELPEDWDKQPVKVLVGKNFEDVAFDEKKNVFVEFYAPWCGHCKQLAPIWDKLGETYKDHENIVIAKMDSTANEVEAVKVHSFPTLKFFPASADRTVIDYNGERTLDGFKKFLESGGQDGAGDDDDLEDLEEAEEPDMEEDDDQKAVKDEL

In the case of “6-(butyltelluro)-6-deoxy-β-cyclodextrin [TE-2]”, the EC50 (HIV-1(IIIB) [1]) is reported as 15 ± 7 µM, the IC50 [2] is reported as over 250 µM and the IC50 (PHA-stimulated PBMCs) is reported as 54 ± 16 µM. The time-of-drug-addition profile (HIV-1(IIIB) [3]) was “mostly lost when added at t = 1 h after infection; also recorded: profile resembling that of the fusion inhibitor enfuvirtide (T-20)”, the “infectivity of virus particles produced in presence of compound (normalized for equal p24)” value (HIV-1) was “substantially less infectious virus particles” and the “Ratio IC50/EC50 HIV-2 (CEM)” value (HIV-2(ROD)) was 167. For the same substance, the EC50 (HIV-2(ROD); concentration required to protect against cytopathogenicity of HIV by 50%, mean ± SD, read-out: EC50 HIV-2 (ROD)) was 1.5 ± 0.52 µM, the EC50 (HIV-1(HE)) was 6.6 ± 4.2 µM and the “SPR binding to PDI” value (PDI) was “dose-dependently interact with PDI”. The “Ratio IC50/EC50 HIV-1 (CEM)” value (HIV-1(IIIB) [4]) was 227, the EC50 (HIV-1(IIIB) [4]; concentration required to protect against cytopathogenicity of HIV by 50%, mean ± SD, read-out: EC50 HIV-1 (IIIB)) was 1.1 ± 0.25 µM and the “antiviral selectivity SI = IC50/EC50” value (HIV-1(IIIB) [4]; over HIV-1 and HIV-2) was 167–227 and > 100.
